Experimental data as given in PubChem BioAssay AID330 (DTP/NCI, 2004).
Where “and” joins values, the source holds several entries; their conditions need not be identical. Identical values can stand only once. Toxic doses and inconclusive results are not listed. How the source made its calls: active means survival T/C of 150% or more; inactive means T/C below 125% in these data. Peptide text beside a SMILES is read from it. * marks the point of attachment. Cbz = O=C(OCc1ccccc1)*

System: P388 leukemia ip, CD2F1 mice, survival T/C
Assay: NCI In Vivo Anticancer Drug Screen. Data for tumor model P388 Leukemia (intraperitoneal) in CD2F1 (CDF1) mice
Details: endpoint: median survival time, higher = longer survival
Procedure, shortened: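 Mice carrying the transplanted tumor received test compound or vehicle. Survival was recorded in each group, and the value is the treated-group measurement divided by that of the vehicle-treated control group.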

[1] = dose: 100.0 mg/kg/injection, schedule: Q04DX003 (ip), vehicle: saline
[2] = dose: 200.0 mg/kg/injection, schedule: Q04DX003 (ip), vehicle: saline
[3] = dose: 400.0 mg/kg/injection, schedule: Q04DX003 (ip), vehicle: saline
[4] = dose: 50.0 mg/kg/injection, schedule: Q01DX005 (ip), vehicle: Klucel (hydroxypropylcellulose) (HPC)
[5] = dose: 100.0 mg/kg/injection, schedule: Q01DX005 (ip), vehicle: Klucel (hydroxypropylcellulose) (HPC)
[6] = dose: 200.0 mg/kg/injection, schedule: Q01DX005 (ip), vehicle: Klucel (hydroxypropylcellulose) (HPC)
[7] = dose: 50.0 mg/kg/injection, schedule: Q01DX009 (ip), vehicle: Klucel (hydroxypropylcellulose) (HPC)
[8] = dose: 100.0 mg/kg/injection, schedule: Q01DX009 (ip), vehicle: Klucel (hydroxypropylcellulose) (HPC)
[9] = dose: 200.0 mg/kg/injection, schedule: Q01DX009 (ip), vehicle: Klucel (hydroxypropylcellulose) (HPC)
[10] = dose: 12.5 mg/kg/injection, schedule: Q01DX005 (ip), vehicle: saline with Tween-80
[11] = dose: 25.0 mg/kg/injection, schedule: Q01DX005 (ip), vehicle: saline with Tween-80
[12] = dose: 50.0 mg/kg/injection, schedule: Q01DX005 (ip), vehicle: saline with Tween-80
[13] = dose: 100.0 mg/kg/injection, schedule: Q01DX005 (ip), vehicle: saline with Tween-80
[14] = dose: 200.0 mg/kg/injection, schedule: Q01DX005 (ip), vehicle: saline with Tween-80

Measured: T/C

c1ccc(ON=C2c3ccccc3-c3ccccc32)cc1
inactive: dose: 75.0 mg/kg/injection, schedule: Q04DX003 (ip), vehicle: saline 113 % of control | dose: 125.0 mg/kg/injection, schedule: Q04DX003 (ip), vehicle: saline 109 % of control | dose: 250.0 mg/kg/injection, schedule: Q04DX003 (ip), vehicle: saline 104 % of control

CCOC(=O)NC(NC(=O)OCC)c1ccccc1[N+](=O)[O-]
inactive: [1] 99 % of control | [2] 99 % of control | [3] 89 % of control

CN(C)CCCN(c1ccccc1)c1ccccc1
inactive: [4] 98 % of control | [5] 98 % of control | [6] 98 % of control

N#C/C(=C\C=C\c1ccccc1)C(N)=O
inactive: dose: 50.0 mg/kg/injection, schedule: Q04DX003 (ip), vehicle: saline with Tween-80 104 % of control | dose: 100.0 mg/kg/injection, schedule: Q04DX003 (ip), vehicle: saline with Tween-80 104 % of control | dose: 200.0 mg/kg/injection, schedule: Q04DX003 (ip), vehicle: saline with Tween-80 109 % of control

CC(=O)Oc1cc(C)cc2c1[C@@]1(C)CC[C@H]3[C@@H](CC[C@H]4C[C@@H](OC(C)=O)CC[C@@]43C)[C@@H]1C2
inactive: [4] 96 % of control | [5] 96 % of control | [6] 107 % of control

COc1ccc(/C=N/N2C(=O)c3ccccc3C2=O)c(OC)c1
inactive: [4] 99 % of control | [5] 98 % of control | [6] 96 % of control

CC1(C)OC2COC3(C(=O)O)OC(C)(C)OC3C2O1 (stereo not drawn)
inactive: [4] 100 % of control | [5] 100 % of control | [6] 98 % of control

N/C(=N\N=C1CCCCC1)N[N+](=O)[O-]
inactive: [4] 105 % of control | [5] 102 % of control | [6] 102 % of control

Nc1cccc2c1C(=O)c1nccnc1C2=O
inactive: dose: 100.0 mg/kg/injection, schedule: Q01DX001 (ip), vehicle: Klucel + Tween-80 98 % of control | dose: 200.0 mg/kg/injection, schedule: Q01DX001 (ip), vehicle: Klucel + Tween-80 98 % of control | dose: 400.0 mg/kg/injection, schedule: Q01DX001 (ip), vehicle: Klucel + Tween-80 97 % of control

CCCCCCCCCCCCCCCCCCCCC(C(=O)OCC)S(=O)(=O)O (stereo not drawn)
inactive: [7] 116 % of control | [8] 111 % of control

CN(C)c1nc(=O)c2ccccc2o1
inactive: dose: 15.0 mg/kg/injection, schedule: Q01DX005 (ip), vehicle: saline 100 % of control | dose: 30.0 mg/kg/injection, schedule: Q01DX005 (ip), vehicle: saline 97 % of control | dose: 60.0 mg/kg/injection, schedule: Q01DX005 (ip), vehicle: saline 101 % of control and 95 % of control

CCOC(CCC1=NC(C)(C)CC(C)O1)OCC (stereo not drawn)
inactive: dose: 100.0 mg/kg/injection, schedule: Q01DX001 (ip), vehicle: saline sonified 110 % of control | dose: 200.0 mg/kg/injection, schedule: Q01DX001 (ip), vehicle: saline sonified 100 % of control | dose: 400.0 mg/kg/injection, schedule: Q01DX001 (ip), vehicle: saline sonified 90 % of control

Cc1ccc(S(=O)(=O)N/N=C\C(O)C(O)C(O)CO)cc1 (stereo not drawn)
inactive: [7] 114 % of control | [8] 106 % of control | [9] 107 % of control | dose: 400.0 mg/kg/injection, schedule: Q01DX009 (ip), vehicle: Klucel (hydroxypropylcellulose) (HPC) 104 % of control

CCOC(=O)c1ccc(N=Cc2cccs2)cc1
inactive: dose: 50.0 mg/kg/injection, schedule: Q01DX009 (ip), vehicle: saline 88 % of control | dose: 100.0 mg/kg/injection, schedule: Q01DX009 (ip), vehicle: saline 92 % of control | dose: 200.0 mg/kg/injection, schedule: Q01DX009 (ip), vehicle: saline 102 % of control

O=C(O)C1CSC2(CCCCC2)N1 (stereo not drawn)
inactive: dose: 50.0 mg/kg/injection, schedule: Q04DX003 (ip), vehicle: saline 104 % of control | [1] 95 % of control | [2] 99 % of control | [3] 96 % of control

CCCCCCC(=O)CC(SCC)c1c(Cl)cccc1Cl (stereo not drawn)
inactive: dose: 50.0 mg/kg/injection, schedule: Q01DX009 (ip), vehicle: saline with Tween-80 89 % of control | dose: 100.0 mg/kg/injection, schedule: Q01DX009 (ip), vehicle: saline with Tween-80 98 % of control | dose: 200.0 mg/kg/injection, schedule: Q01DX009 (ip), vehicle: saline with Tween-80 100 % of control

O=C(c1ccc([N+](=O)[O-])cc1)c1cnc2nc(-c3ccccc3)c(-c3ccccc3)nn12
inactive: [10] 99 % of control | [11] 97 % of control | [12] 88 % of control and 93 % of control | [13] 89 % of control | [14] 96 % of control

CC(O)C(NC(=O)C(Cc1ccc(O)cc1)NC(=O)OCc1ccccc1)C(=O)O (stereo not drawn) (Cbz-Tyr-Thr-OH; configuration not given here)
inactive: dose: 50.0 mg/kg/injection, schedule: Q01DX005 (ip), vehicle: suspension in saline 105 % of control | dose: 100.0 mg/kg/injection, schedule: Q01DX005 (ip), vehicle: suspension in saline 96 % of control | dose: 200.0 mg/kg/injection, schedule: Q01DX005 (ip), vehicle: suspension in saline 111 % of control

Cc1c(COC(=O)NC(C)C)c(COC(=O)NC(C)C)c2n1CS(=O)C2 (stereo not drawn)
inactive: [10] 104 % of control | [11] 111 % of control | [12] 118 % of control
active: [14] 176 % of control

COc1cc(C(=O)NN=C(C)C)cc(OC)c1OC
inactive: [4] 101 % of control | [5] 104 % of control | [6] 101 % of control

O=C1c2ccncc2C(=O)c2c(O)ccc(O)c21
inactive: dose: 12.5 mg/kg/injection, schedule: Q01DX009 (ip), vehicle: distilled water + Tween-80 102 % of control | dose: 25.0 mg/kg/injection, schedule: Q01DX009 (ip), vehicle: distilled water + Tween-80 100 % of control | dose: 50.0 mg/kg/injection, schedule: Q01DX009 (ip), vehicle: distilled water + Tween-80 98 % of control | dose: 100.0 mg/kg/injection, schedule: Q01DX009 (ip), vehicle: distilled water + Tween-80 109 % of control

Cc1ccc(-n2c(COc3c(C)cccc3C)n[nH]c2=S)cc1
inactive: dose: 12.5 mg/kg/injection, schedule: Q01DX009 (ip), vehicle: Klucel (hydroxypropylcellulose) (HPC) 100 % of control | dose: 25.0 mg/kg/injection, schedule: Q01DX009 (ip), vehicle: Klucel (hydroxypropylcellulose) (HPC) 100 % of control | [4] 90 % of control | [7] 109 % of control | [6] 89 % of control

COc1ccccc1NC(=O)C1C(=O)C(=O)N(c2ccccc2OC)C1=O (stereo not drawn)
inactive: [7] 106 % of control | [8] 106 % of control | [9] 100 % of control

Cn1c(=S)[nH]n(CCOc2ccccc2)c1=S
inactive: dose: 60.0 mg/kg/injection, schedule: Q01DX005 (ip), vehicle: saline with Tween-80 118 % of control | dose: 120.0 mg/kg/injection, schedule: Q01DX005 (ip), vehicle: saline with Tween-80 98 % of control and 99 % of control and 108 % of control | dose: 240.0 mg/kg/injection, schedule: Q01DX005 (ip), vehicle: saline with Tween-80 109 % of control and 123 % of control and 97 % of control | dose: 480.0 mg/kg/injection, schedule: Q01DX005 (ip), vehicle: saline with Tween-80 105 % of control and 96 % of control

CSc1nc(N)nc2c1ncn2C1CC(O)C(CO)O1 (stereo not drawn)
inactive: dose: 50.0 mg/kg/injection, schedule: Q04DX003 (ip), vehicle: Klucel (hydroxypropylcellulose) (HPC) 94 % of control | dose: 100.0 mg/kg/injection, schedule: Q04DX003 (ip), vehicle: Klucel (hydroxypropylcellulose) (HPC) 100 % of control | dose: 200.0 mg/kg/injection, schedule: Q04DX003 (ip), vehicle: Klucel (hydroxypropylcellulose) (HPC) 107 % of control | dose: 400.0 mg/kg/injection, schedule: Q04DX003 (ip), vehicle: Klucel (hydroxypropylcellulose) (HPC) 106 % of control

C=C(Br)C(=NC(C)(C)C)Nc1ccc(Cl)cc1
inactive: dose: 6.25 mg/kg/injection, schedule: Q01DX005 (ip), vehicle: Klucel (hydroxypropylcellulose) (HPC) 107 % of control | dose: 12.5 mg/kg/injection, schedule: Q01DX005 (ip), vehicle: Klucel (hydroxypropylcellulose) (HPC) 114 % of control | [4] 98 % of control | [5] 103 % of control | [6] 102 % of control

[N-]=[N+]=CC(=O)C1(c2ccccc2)OC1c1ccccc1 (stereo not drawn)
inactive: [11] 91 % of control | [12] 86 % of control | [13] 94 % of control | [14] 86 % of control

OC(CCl)CN1CCN(CC(O)CCl)CC1 (stereo not drawn)
active: dose: 25.0 mg/kg/injection, schedule: Q01DX005 (ip), vehicle: water 150 % of control
inactive: dose: 100.0 mg/kg/injection, schedule: Q01DX005 (ip), vehicle: water 90 % of control and 92 % of control

CCO/C=C1\SC(=S)N(c2ccc(O)cc2)C1=O
inactive: [1] 113 % of control | [2] 113 % of control | [3] 109 % of control
